“Also recorded” adds a separate entry of the source.
Columns and labels:
[1] = tested on: YopE secretion by attenuated Y. pestis; experiment: microbe, parasite or virus in culture; assay type: cell-based, Yersinia pestis KIM19; details: for inhibition at 100 µM / inhibition at 10 µM: Yersinia pestis, 1 h; for inhibition at 100 µM: read-out: Inhibition of YopE secretion at 100 µM; for inhibition at 10 µM: read-out: Inhibition of YopE secretion at 10 µM
[2] = tested on: HeLa cells incubated with attenuated Y. pestis KIM19 strain
[3] = in vitro; details: human, hela cells
[4] = tested on: Attenuated Y. pestis KIM19 strain; assay type: cell-based, Yersinia pestis
[5] = tested on: HeLa cells incubated with attenuated Y. pestis KIM19 strain; experiment: cells; details: Homo sapiens, 3 h; for inhibition at 10 µM: read-out: Inhibition of HeLa cell toxicity by attenuated Y. pestis at 10 µM; for inhibition at 50 µM: read-out: Inhibition of HeLa cell toxicity by attenuated Y. pestis at 50 µM
[6] = tested on: human HeLa cells

Compound | inhibition at 100 µM [1] [%] | Effectiveness in the cell infection model (in words) [2] | cytotoxicity at 100 µM [3] [%] | Inhibition of YopE secretion at 50 µM or lower concentration [1] | inhibition at 10 µM [1] [%] | Effect on growth rate of Y. pestis in bacterial medium (in words) [4] | inhibition at 10 µM [5] [%] | inhibition at 50 µM [5] [%] | Inhibition of YopE secretion (in words) [1] | Cytotoxicity against HeLa cells, inhibition at 100 µM [6] [%]
CNC(=O)C1CN(C(=O)COC(=O)c2cc(-c3cccs3)nc3ccccc23)c2ccccc2O1 (stereo not shown) [Compound 9652] | 30 | – | – | – | – | – | – | – | – | –
CC(=O)Nc1ccc(N2C(=O)c3ccc(C(=O)OC(C)C(=O)c4c[nH]c5ccccc45)cc3C2=O)cc1 (stereo not shown) [Compound 7812] | ≥ 80 | only moderately effective | 0 | at least 50% | ≥ 95 | none of them had a significant effect on the growth rate; also recorded: minimal bacterial growth inhibition | 0 | 0 | – | –
CC(=O)Nc1ccc(-c2csc(NC(=O)c3sc4nc(C)cc(C)c4c3C)n2)c(F)c1 [Compound 7146] | – | – | – | – | – | – | – | – | poor inhibitors of the YopE secretion | –
Methanol [reference compound] | – | – | – | – | – | – | – | – | – | 100±1
O=C(CNC(=O)c1sc2ccccc2c1Cl)Nc1ccc(-n2cnc3ccccc32)cc1 [Compound 7832] | ≥ 80 | only moderately effective | 0 | at least 50% | ≥ 95 | none of them had a significant effect on the growth rate; also recorded: minimal bacterial growth inhibition | 0 | 30 | – | –
Cc1ccc(S(=O)(=O)N2CCCN(c3ccc([N+](=O)[O-])c4nonc34)CC2)cc1 [Compound 1504] | – | – | – | – | – | – | – | – | poor inhibitors of the YopE secretion | –
O=C(Cc1csc(NC(=O)c2ccccc2)n1)Nn1cnc2scc(-c3ccco3)c2c1=O [Compound 7086] | ≥ 80 | only moderately effective | 26 ± 11 | at least 50% | ≥ 95 | small bacteriostatic effect; also recorded: some bacteriostatic effect; also recorded: slight inhibition of bacterial growth | 0 | 20 | – | –
